In patent US12281108B2, “Pyrrolidinone derivatives as formyl peptide 2 receptor agonists” (BRISTOL-MYERS SQUIBB COMPANY, priority 2018, dated 2025):
pEC50: −log10 of the molar value. Read-outs that look alike come from different tables or passages of the source.

Assays:
[1] = target: T1, human FPR2 receptors (Homo sapiens, UniProt P25090); test: FPR2 cAMP assay in CHO cells overexpressing human FPR2 (HTRF); format: cell-based
T1 sequence (P25090 1-351): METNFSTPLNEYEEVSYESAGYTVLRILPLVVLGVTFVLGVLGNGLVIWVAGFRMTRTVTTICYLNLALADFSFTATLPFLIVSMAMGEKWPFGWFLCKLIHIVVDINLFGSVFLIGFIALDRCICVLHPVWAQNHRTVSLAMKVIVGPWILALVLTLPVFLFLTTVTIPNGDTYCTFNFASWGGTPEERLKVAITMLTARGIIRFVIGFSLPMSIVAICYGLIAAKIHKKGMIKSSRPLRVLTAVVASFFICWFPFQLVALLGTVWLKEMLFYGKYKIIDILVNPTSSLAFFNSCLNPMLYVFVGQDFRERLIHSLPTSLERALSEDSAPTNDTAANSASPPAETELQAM
Source text: (§1) N-formyl peptide receptors (FPRs) are a family of chemo attractant receptors that facilitate leukocyte response during inflammation. FPRs belong to the seven-transmembrane G protein-coupled receptor superfamily and are linked to inhibitory G-proteins (Gi). Three family members (FPR1, FPR2 and FPR3) have been identified in humans and are predominantly found in myeloid cells with varied distribution and have also been reported in multiple organs and tissues. After agonist binding, the FPRs activate a multitude of physiological pathways, such as intra cellular signaling transduction, Ca^2+ mobilization and transcription. The family interacts with a diverse set of ligands that includes proteins, polypeptides and fatty acid metabolites which activate both pro-inflammatory and pro-resolution downstream responses. FPR2 and FPR1 Cyclic Adenosine Monophosphate (cAMP) Assays were used to measure the in vitro activity of the compounds disclosed in this application.
FPR2 and FPR1 Cyclic Adenosine Monophosphate (cAMP) Assays. A mixture of forskolin (5 μM final for FPR2 or 10 μM final for FPR1) and IBMX (200 μM final) were added to 384-well Proxiplates (Perkin-Elmer) pre-dotted with test compounds in DMSO (1% final) at final concentrations in the range of 0.020 nM to 100 μM. Chinese Hamster Ovary cells (CHO) overexpressing human FPR1 or human FPR2 receptors were cultured in F-12 (Ham's) medium supplemented with 10% qualified FBS, 250 μg/ml zeocin and 300 μg/ml hygromycin (Life Technologies). Reactions were initiated by adding 2,000 human FPR2 cells per well or 4,000 human FPR1 cells per well in Dulbecco's PBS (with calcium and magnesium) (Life Technologies) supplemented with 0.1% BSA (Perkin-Elmer). The reaction mixtures were incubated for 30 min at room temperature. The level of intracellular cAMP was determined using the HTRF HiRange cAMP assay reagent kit (Cisbio) according to manufacturer's instruction. Solutions of cryptate conjugated anti-cAMP and d2 flurorophore-labelled cAMP were made in a supplied lysis buffer separately. Upon completion of the reaction, the cells were lysed with equal volume of the d2-cAMP solution and anti-cAMP solution. After a 1-h room temperature incubation, time-resolved fluorescence intensity was measured using the Envision (Perkin-Elmer) at 400 nm excitation and dual emission at 590 nm and 665 nm. A calibration curve was constructed with an external cAMP standard at concentrations ranging from 1 μM to 0.1 pM by plotting the fluorescent intensity ratio from 665 nm emission to the intensity from the 590 nm emission against cAMP concentrations. The potency and activity of a compound to inhibit cAMP production was then determined by fitting to a 4-parametric logistic equation from a plot of cAMP level versus compound concentrations.

[2] = target: T2, human FPR1 receptors (Homo sapiens, UniProt P21462); test: FPR1 cAMP assay in CHO cells overexpressing human FPR1 (HTRF); format: cell-based; conditions: forskolin 10 μM, inhibition of cAMP production, read-out: hFPR1 cAMP EC50
T2 sequence (P21462 1-350): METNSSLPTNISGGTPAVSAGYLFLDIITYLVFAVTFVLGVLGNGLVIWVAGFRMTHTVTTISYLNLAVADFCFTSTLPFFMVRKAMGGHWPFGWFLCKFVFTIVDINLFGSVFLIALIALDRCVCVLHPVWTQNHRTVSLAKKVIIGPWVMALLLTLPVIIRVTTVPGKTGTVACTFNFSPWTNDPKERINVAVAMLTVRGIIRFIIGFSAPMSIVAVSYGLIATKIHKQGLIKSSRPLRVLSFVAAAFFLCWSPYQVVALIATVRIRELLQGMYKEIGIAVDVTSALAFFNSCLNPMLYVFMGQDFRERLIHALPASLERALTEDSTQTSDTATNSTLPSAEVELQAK
Source text: as §1
FPR2 and FPR1 Cyclic Adenosine Monophosphate (cAMP) Assays. A mixture of forskolin (5 μM final for FPR2 or 10 μM final for FPR1) and IBMX (200 μM final) were added to 384-well Proxiplates (Perkin-Elmer) pre-dotted with test compounds in DMSO (1% final) at final concentrations in the range of 0.020 nM to 100 μM. Chinese Hamster Ovary cells (CHO) overexpressing human FPR1 or human FPR2 receptors were cultured in F-12 (Ham's) medium supplemented with 10% qualified FBS, 250 μg/ml zeocin and 300 μg/ml hygromycin (Life Technologies). […] The level of intracellular cAMP was determined using the HTRF HiRange cAMP assay reagent kit (Cisbio) according to manufacturer's instruction. […] After a 1-h room temperature incubation, time-resolved fluorescence intensity was measured using the Envision (Perkin-Elmer) at 400 nm excitation and dual emission at 590 nm and 665 nm. […] The potency and activity of a compound to inhibit cAMP production was then determined by fitting to a 4-parametric logistic equation from a plot of cAMP level versus compound concentrations.

[3] = CHO cells overexpressing human FPR2, forskolin 5 μM, inhibition of cAMP production, read-out: hFPR2 cAMP2 EC50
[4] = hFPR2 assay, potency bins, read-out: hFPR2 agonist activity EC50

| pEC50 [1, 3] | pEC50 [2] | pEC50 [1, 4] | Structure (SMILES) |
| --- | --- | --- | --- |
| 8.17 | 6.80 |  | COc1cc(F)c([C@@H]2CNC(=O)[C@H]2Nc2nnc(-c3ccc(SC(F)(F)F)cc3)o2)c(F)c1 [Example 18, (3S,4R)-4-(2,6-difluoro-4-methoxyphenyl)-3-[(5-{4-[(trifluoromethyl)sulfanyl]phenyl}-1,3,4-oxadiazol-2-yl)amino]pyrrolidin-2-one] |
| 6.05 | 5.54 |  | COc1cc(F)c([C@@H]2CNC(=O)[C@H]2Nc2cc(-c3ccc(C(F)F)cc3)on2)c(F)c1 [Example 22, (3S,4R)-4-(2,6-difluoro-4-methoxyphenyl)-3-({5-[4-(difluoromethyl)phenyl]-1,2-oxazol-3-yl}amino)pyrrolidin-2-one] |
| 7.15 | 6.06 |  | COc1cc(F)c([C@@H]2CNC(=O)[C@H]2Nc2nnc(-c3ccc(Oc4ccc(C(F)(F)F)nc4)cc3)o2)c(F)c1 [Example 58, (3S,4R)-4-(2,6-difluoro-4-methoxyphenyl)-3-{[5-(4-{[6-(trifluoromethyl)pyridin-3-yl]oxy}phenyl)-1,3,4-oxadiazol-2-yl]amino}pyrrolidin-2-one] |
|  |  | 6.82 to 7.40 | COc1cc(F)c([C@@H]2CNC(=O)[C@H]2Nc2nnc(-c3ccc(Oc4cncc(C)n4)cc3)o2)c(F)c1 [Example 63, (3S,4R)-4-(2,6-difluoro-4-methoxyphenyl)-3-[(5-{4-[(6-methylpyrazin-2-yl)oxy]phenyl}-1,3,4-oxadiazol-2-yl)amino]pyrrolidin-2-one] |
|  |  | ≥ 7.40 | COc1cc(F)c([C@@H]2CNC(=O)[C@H]2Nc2nnc(-c3ccc(Oc4cccc(F)n4)cc3)o2)c(F)c1 [Example 64, (3S,4R)-4-(2,6-difluoro-4-methoxyphenyl)-3-[(5-{4-[(6-fluoropyridin-2-yl)oxy]phenyl}-1,3,4-oxadiazol-2-yl)amino]pyrrolidin-2-one] |
|  |  | 6.82 to 7.40 | COc1cc(F)c([C@@H]2CNC(=O)[C@H]2Nc2nnc(-c3ccc(Oc4ccc(F)cn4)cc3)o2)c(F)c1 [Example 65, (3S,4R)-4-(2,6-difluoro-4-methoxyphenyl)-3-[(5-{4-[(5-fluoropyridin-2-yl)oxy]phenyl}-1,3,4-oxadiazol-2-yl)amino]pyrrolidin-2-one] |
|  |  | 6.82 to 7.40 | COc1cc(F)c([C@@H]2CNC(=O)[C@H]2Nc2nnc(-c3ccc(Oc4ncccc4C#N)cc3)o2)c(F)c1 [Example 66, 2-[4-(5-{[(3S,4R)-4-(2,6-difluoro-4-methoxyphenyl)-2-oxopyrrolidin-3-yl]amino}-1,3,4-oxadiazol-2-yl)phenoxy]pyridine-3-carbonitrile] |
|  |  | 6.00 to 6.82 | COc1cc(F)c([C@@H]2CNC(=O)[C@H]2Nc2nnc(-c3ccc(Oc4cccc(OC)n4)cc3)o2)c(F)c1 [Example 67, (3S,4R)-4-(2,6-difluoro-4-methoxyphenyl)-3-[(5-{4-[(6-methoxypyridin-2-yl)oxy]phenyl}-1,3,4-oxadiazol-2-yl)amino]pyrrolidin-2-one] |
|  |  | ≥ 7.40 | COc1cc(F)c([C@@H]2CNC(=O)[C@H]2Nc2nnc(-c3ccc(Oc4cc(Cl)ccn4)cc3)o2)c(F)c1 [Example 68, (3S,4R)-3-[(5-{4-[(4-chloropyridin-2-yl)oxy]phenyl}-1,3,4-oxadiazol-2-yl)amino]-4-(2,6-difluoro-4-methoxyphenyl)pyrrolidin-2-one] |
